Reference: US9447090B2, “Imidazopyridine compounds” (Astellas Pharma Inc., priority 2011, dated 2016)

Tests used:
human purified sGC = human purified sGC (Homo sapiens (Human), UniProt Q02108+Q02153); test: Measurement of sGC activation (enzyme): cGMP produced by human purified sGC, HTRF; format: biochemical; conditions: for EC50: concentration giving 50% of maximum activation; for sGC activation [%]: activation when the compound was not added taken as 100%, maximum concentration 100 μM, with SNP
Sequence of human purified sGC (Q02153 whole entry): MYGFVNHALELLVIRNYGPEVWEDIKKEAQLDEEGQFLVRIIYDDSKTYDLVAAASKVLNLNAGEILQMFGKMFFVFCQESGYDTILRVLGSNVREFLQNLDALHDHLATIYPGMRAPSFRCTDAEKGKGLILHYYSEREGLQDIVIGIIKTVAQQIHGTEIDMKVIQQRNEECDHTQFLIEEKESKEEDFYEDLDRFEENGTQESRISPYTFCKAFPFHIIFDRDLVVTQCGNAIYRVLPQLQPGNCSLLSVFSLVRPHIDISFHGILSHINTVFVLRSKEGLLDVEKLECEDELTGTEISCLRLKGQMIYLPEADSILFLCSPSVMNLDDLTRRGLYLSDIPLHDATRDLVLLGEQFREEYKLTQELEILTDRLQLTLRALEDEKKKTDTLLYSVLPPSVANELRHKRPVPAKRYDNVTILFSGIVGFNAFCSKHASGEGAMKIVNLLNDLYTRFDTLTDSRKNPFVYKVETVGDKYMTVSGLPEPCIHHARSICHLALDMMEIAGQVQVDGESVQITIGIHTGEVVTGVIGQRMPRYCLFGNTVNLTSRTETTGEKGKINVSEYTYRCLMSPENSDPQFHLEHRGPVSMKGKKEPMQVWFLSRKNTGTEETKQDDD
Sequence of human purified sGC (Q02108 whole entry): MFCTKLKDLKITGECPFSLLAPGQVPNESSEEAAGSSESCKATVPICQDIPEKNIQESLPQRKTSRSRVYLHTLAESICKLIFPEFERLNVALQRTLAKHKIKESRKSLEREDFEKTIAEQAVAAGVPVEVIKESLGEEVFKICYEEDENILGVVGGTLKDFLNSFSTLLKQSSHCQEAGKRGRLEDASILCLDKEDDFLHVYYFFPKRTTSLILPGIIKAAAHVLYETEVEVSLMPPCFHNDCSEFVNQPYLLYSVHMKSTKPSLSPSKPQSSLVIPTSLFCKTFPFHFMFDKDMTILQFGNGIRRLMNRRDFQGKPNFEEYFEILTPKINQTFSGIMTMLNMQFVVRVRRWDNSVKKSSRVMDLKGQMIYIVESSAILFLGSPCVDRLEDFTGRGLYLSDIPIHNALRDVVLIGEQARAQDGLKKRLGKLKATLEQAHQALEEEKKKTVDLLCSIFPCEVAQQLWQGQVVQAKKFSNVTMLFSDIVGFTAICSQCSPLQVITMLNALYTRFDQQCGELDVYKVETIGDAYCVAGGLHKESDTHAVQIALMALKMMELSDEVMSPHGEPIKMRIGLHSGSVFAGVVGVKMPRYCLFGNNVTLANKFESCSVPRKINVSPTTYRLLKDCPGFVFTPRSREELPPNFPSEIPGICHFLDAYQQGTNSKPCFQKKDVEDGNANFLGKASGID
Experimental: The activity of sGC was evaluated by measuring the amount of a cyclic guanosine monophosphate (cGMP) which is produced by human purified sGC.
A test compound was dissolved in DMSO and diluted 20-fold with ultrapure water. 2 μL of the diluted test compound solution (maximum concentration 100 μM), 2 μL of a substrate solution [0.5 μM TEBA, 0.03 μM dithiothreitol, 0.01 μM GTP, 0.04 μM MgCl2, and 0.03 μM sodium nitroprusside (SNP)], and 6 μL of a human enzyme suspension were added to 384-well plates (manufactured by Greiner Bio-One), and incubated at room temperature for one hour. The quantitative determination of cGMP is using HTRF which based on the competition between sample cGMP and fluorescent dye labeled cGMP for binding to a cGMP-specific antibody.
The test results of some Example compounds that are the compounds of the formula (I) of the present invention are shown below. The sGC activation of the test compound was calculated by taking the activation when the compound was not added as 100%. As compared with the activation when the compound was not added, it was recognized that a compound having a sGC activation of more than 300% has sGC activation. In addition, in Tables, Ex represents Example number in which the test compound is described and the sGC activation [%] represents sGC activation (%).
Furthermore, the EC50 [μM] value was calculated as another parameter for expressing sGC activation. This parameter indicates the concentration of the evaluated compound giving 50% of a maximum activation, which is calculated based on the maximum activation that compound of Example 102 is added, which is taken as 100%. In this connection, when a known sGC activator, YC-1 (Lificiguat, [5-(1-benzyl-1H-indazol-3-yl)-2-furyl]methanol), was evaluated according to the above Test Example 1, its maximum activation was 52% of the maximum activation for compound of Example 102. Further, “−” means no evaluation.

Wistar male rats [1] = test: Blood flow increasing in vivo: hind limb blood flow in anesthetized rats, laser blood flow imaging; conditions: rat hind limb, oral, 2 hours after administration
Experimental: The hind limb blood flow in rats anesthetized with pentobarbital was measured by the following test method. Wistar male rats were used. […] Thus prepared administration liquid was orally administered, and 2 hours later, the hind limb blood flow was measured using a laser blood flow imaging device (PIM II Integral) under anesthesia with intraperitoneal administration of 60 mg/kg of pentobarbital.

Wistar male rats [2] = test: Measurement of antihypertensive effect in vivo: blood pressure via carotid cannula after oral dosing; conditions: rat
Experimental: Wistar male rats were used. Three days prior to administration of a drug, a cannula (PE-50, Becton, Dickinson and Company, Japan) filled with heparin physiological saline (200 U/mL, Ajinomoto Pharmaceuticals Co., Ltd.) was inserted and placed in the common carotid artery under anesthesia with intraperitoneal administration of 60 mg/kg of pentobarbital. The other end of the cannula was exposed to the back neck through the subcutaneous. After the recovery period, the placed cannula was connected to a pressure transducer (Life Kit DTS DX-100, Nihon Kohden Corporation) to record the blood pressure waveform through a Polygraph (AP-641G, Nihon Kohden Co., Ltd.) and PowerLab (ML870 PowerLab8/30 (AD Instruments Japan)). The heart rate was calculated using a heart rate measuring unit (AT-601G, Nihon Kohden Co., Ltd.). After stabilization of the blood pressure, the drug was orally administered to measure the blood pressure and the heart rates. The test compounds were administered by appropriately adding N,N-dimethylformamide, Polyethylene Glycol 400, TWEEN 80, a 0.5% aqueous methylcellulose solution, and a 0.5 M aqueous sodium bicarbonate solution, and 0.1 M hydrochloric acid therein according to the compounds and dissolving it.
The results from the measurement according to Test Example 3 are shown below according to the following criteria with a maximum value of the mean blood pressure reduction. A: <20 mmHg, B: 20 to 40 mmHg, and C: >40 mmHg

[3] = maximum activation of Example 102 taken as 100%

Cc1nc2c(OCc3cccc(F)c3F)cccn2c1C(=O)N[C@@H]1c2ccccc2[C@H](O)[C@H]1O (stereo in doubt) [Ex 797]
EC50 (human purified sGC; [3]): 8.9 µM

Cc1nc2c(OCc3ccccc3F)cccn2c1C(=O)N[C@@H]1c2ccccc2[C@H](O)[C@H]1O (stereo in doubt) [Ex 798]
EC50 (human purified sGC; [3]): 8.6 µM

Cc1nc2c(OCC3CCCCC3)cccn2c1C(=O)N[C@@H](CO)c1ccccc1 [Ex 102]
blood flow increasing effect (Wistar male rats [1]; dose of 10 mg/kg): exhibited a blood flow increasing effect
EC50 (human purified sGC; [3]): 2.8 µM

Cc1nc2c(OCc3c(F)cccc3F)cccn2c1C(=O)N[C@@H](CO)c1ccccc1.Cl [Ex 119]
blood flow increasing effect (Wistar male rats [1]; dose of 10 mg/kg): exhibited a blood flow increasing effect
EC50 (human purified sGC; [3]): 2.9 µM

Cc1nc2c(OCC3CCCCC3)cccn2c1C(=O)NC(CO)CO [Ex 126]
EC50 (human purified sGC; [3]): 11 µM

Cc1nc2c(OCC3CCCCC3)cccn2c1C(=O)N[C@@H](CC(=O)O)CC1CCC1 [Ex 179]
blood flow increasing effect (Wistar male rats [1]; dose of 10 mg/kg): exhibited a blood flow increasing effect
EC50 (human purified sGC; [3]): 2.7 µM

Cc1nc2c(OCCC(C)(C)C)cccn2c1C(=O)N[C@@H](CO)c1ccccc1.Cl [Ex 205]
sGC activation [%] (human purified sGC): >1000%

Cc1nc2c(OCC3CCCCC3)cccn2c1C(=O)N[C@H]1CCCN(C)C1 [Ex 226]
sGC activation [%] (human purified sGC): >1000%
EC50 (human purified sGC; [3]): 6.7 µM

Cc1nc2c(OCc3c(F)ccc(F)c3F)cccn2c1C(=O)N[C@@H](CO)c1ccccc1.Cl [Ex 244]
blood flow increasing effect (Wistar male rats [1]; dose of 30 mg/kg): exhibited a blood flow increasing effect
sGC activation [%] (human purified sGC): >1000%

Cc1nc2c(OCc3c(F)cccc3F)cccn2c1C(=O)N[C@H]1CCCN(S(N)(=O)=O)C1 [Ex 247]
blood flow increasing effect (Wistar male rats [1]; dose of 10 mg/kg): exhibited a blood flow increasing effect
EC50 (human purified sGC; [3]): 2.4 µM

Cc1nc2c(OCC3CCCCC3)cccn2c1C(=O)N[C@@H](CC(=O)O)c1ccccc1 [Ex 251]
blood flow increasing effect (Wistar male rats [1]; dose of 10 mg/kg): exhibited a blood flow increasing effect
sGC activation [%] (human purified sGC): >1000%
EC50 (human purified sGC; [3]): 6.1 µM

Cc1nc2c(OCC3CCCCC3)cccn2c1C(=O)N[C@@H]1c2ccccc2C[C@H]1C(=O)O [Ex 321]
blood flow increasing effect (Wistar male rats [1]; dose of 10 mg/kg): exhibited a blood flow increasing effect
sGC activation [%] (human purified sGC): >1000%
EC50 (human purified sGC; [3]): 4.5 µM

Cc1nc2c(OCC3CCCCC3)cccn2c1C(=O)N[C@@H](C)c1cccc(C(=O)O)c1 [Ex 323]
EC50 (human purified sGC; [3]): 13 µM

Cc1nc2c(OCC3CCCCC3)cccn2c1C(=O)N[C@H]1CCN(C)C1 [Ex 341]
blood flow increasing effect (Wistar male rats [1]; dose of 30 mg/kg): exhibited a blood flow increasing effect
sGC activation [%] (human purified sGC): 980%
EC50 (human purified sGC; [3]): 6.9 µM

Cc1nc2c(OCc3c(F)cccc3F)cccn2c1C(=O)NC(CO)(CO)c1ccccc1.Cl [Ex 424]
blood flow increasing effect (Wistar male rats [1]; dose of 10 mg/kg): exhibited a blood flow increasing effect
sGC activation [%] (human purified sGC): >1000%
EC50 (human purified sGC; [3]): 2.4 µM

Cc1nc2c(OCc3c(F)cccc3F)cccn2c1C(=O)N[C@@H]1c2ccccc2C[C@H]1O.Cl [Ex 430]
blood flow increasing effect (Wistar male rats [1]; dose of 10 mg/kg): exhibited a blood flow increasing effect
EC50 (human purified sGC; [3]): 2.6 µM

Cc1nc2c(OCc3c(F)cccc3F)cccn2c1C(=O)N[C@@H]1c2ccccc2C[C@@H]1O.Cl [Ex 431]
Blood pressure reduction (maximum value of the mean blood pressure reduction) (Wistar male rats [2]; 10 mg/kg po): B (B: 20 to 40 mmHg)

Cc1nc2c(OCc3c(F)cccc3F)cccn2c1C(=O)N[C@@H]1c2ccccc2C[C@H]1C(=O)O [Ex 434]
Blood pressure reduction (maximum value of the mean blood pressure reduction) (Wistar male rats [2]; 30 mg/kg po): C (C: >40 mmHg)
EC50 (human purified sGC; [3]): 7.3 µM

Cc1nc2c(OCc3c(F)cccc3F)cccn2c1C(=O)N[C@@H](CO)c1cccc(F)c1.Cl [Ex 436]
sGC activation [%] (human purified sGC): >1000%

Cc1cccc2c1C[C@@H](C(=O)O)[C@@H]2NC(=O)c1c(C)nc2c(OCC3CCCCC3)cccn12 [Ex 693]
blood flow increasing effect (Wistar male rats [1]; dose of 10 mg/kg): exhibited a blood flow increasing effect
sGC activation [%] (human purified sGC): >1000%
EC50 (human purified sGC; [3]): 17 µM

Cc1cccc2c1C[C@@H](C(=O)O)[C@@H]2NC(=O)c1c(C)nc2c(OCc3c(F)cccc3F)cccn12 [Ex 698]
blood flow increasing effect (Wistar male rats [1]; dose of 10 mg/kg): exhibited a blood flow increasing effect
sGC activation [%] (human purified sGC): >1000%
EC50 (human purified sGC; [3]): 19 µM

Cc1nc2c(OCc3c(F)cccc3F)cccn2c1C(=O)N[C@@H]1c2c(F)cccc2C[C@H]1C(=O)O [Ex 699]
blood flow increasing effect (Wistar male rats [1]; dose of 10 mg/kg): exhibited a blood flow increasing effect
sGC activation [%] (human purified sGC): >1000%
EC50 (human purified sGC; [3]): 15 µM

Cc1nc2c(OCc3c(F)ccc(F)c3F)cccn2c1C(=O)N[C@@H]1c2ccccc2C[C@H]1C(=O)O [Ex 702]
blood flow increasing effect (Wistar male rats [1]; dose of 10 mg/kg): exhibited a blood flow increasing effect
sGC activation [%] (human purified sGC): >1000%
EC50 (human purified sGC; [3]): 6.2 µM

Cc1nc2c(OCC3CCCCC3)cccn2c1C(=O)N[C@@H]1c2c(F)cccc2C[C@H]1C(=O)O [Ex 704]
blood flow increasing effect (Wistar male rats [1]; dose of 10 mg/kg): exhibited a blood flow increasing effect
sGC activation [%] (human purified sGC): >1000%
EC50 (human purified sGC; [3]): 11 µM

Cc1nc2c(OCC3CCCCC3)cccn2c1C(=O)N[C@H]1c2c(F)cccc2C[C@@H]1C(=O)O [Ex 705]
EC50 (human purified sGC; [3]): 11 µM

Cc1nc2c(OCC3CCCCC3)cccn2c1C(=O)N[C@@H]1c2ccc(F)cc2C[C@H]1C(=O)O [Ex 706]
blood flow increasing effect (Wistar male rats [1]; dose of 10 mg/kg): exhibited a blood flow increasing effect
sGC activation [%] (human purified sGC): >1000%
EC50 (human purified sGC; [3]): 4.7 µM

Cc1nc2c(OCc3c(F)cccc3F)cccn2c1C(=O)N[C@@H]1c2ccccc2[C@@H](O)[C@H]1O [Ex 759]
blood flow increasing effect (Wistar male rats [1]; dose of 10 mg/kg): exhibited a blood flow increasing effect
EC50 (human purified sGC; [3]): 2.2 µM

Cc1nc2c(OCc3c(F)cccc3F)cccn2c1C(=O)N[C@H](c1ccccc1)[C@H](O)CO [Ex 760]
blood flow increasing effect (Wistar male rats [1]; dose of 10 mg/kg): exhibited a blood flow increasing effect
EC50 (human purified sGC; [3]): 5.9 µM

Cc1nc2c(OCc3c(F)cccc3F)cccn2c1C(=O)N[C@@]1(c2ccccc2)C[C@@H](O)[C@@H](O)C1 [Ex 766]
EC50 (human purified sGC; [3]): 17 µM

Cc1nc2c(OCc3c(F)cccc3F)cccn2c1C(=O)N[C@]1(c2ccccc2)C[C@@H](O)[C@@H](O)C1 [Ex 767]
blood flow increasing effect (Wistar male rats [1]; dose of 10 mg/kg): exhibited a blood flow increasing effect
EC50 (human purified sGC; [3]): 3 µM

Cc1nc2c(OCc3c(F)cccc3F)cccn2c1C(=O)NC(C)(C)CO [Ex 772]
EC50 (human purified sGC; [3]): 5.4 µM

Cc1nc2c(OCc3c(F)cccc3F)cccn2c1C(=O)N[C@H](C)CO [Ex 776]
EC50 (human purified sGC; [3]): 15 µM

Cc1nc2c(OCc3c(F)cccc3F)cccn2c1C(=O)N[C@@H](CO)C(C)C [Ex 778]
EC50 (human purified sGC; [3]): 6.3 µM

Cc1nc2c(OCc3c(F)cccc3F)cccn2c1C(=O)N[C@H]1CCCNC1 [Ex 822]
EC50 (human purified sGC; [3]): 5.6 µM

Cc1ccc(C(CO)(CO)NC(=O)c2c(C)nc3c(OCc4c(F)cccc4F)cccn23)cc1 [Ex 827]
Blood pressure reduction (maximum value of the mean blood pressure reduction) (Wistar male rats [2]; 10 mg/kg po): B (B: 20 to 40 mmHg)

Cc1nc2c(OCc3ccccc3F)cccn2c1C(=O)NC(CO)(CO)c1ccccc1 [Ex 828]
EC50 (human purified sGC; [3]): 7.6 µM

Cc1nc2c(OCc3cccc(F)c3F)cccn2c1C(=O)NC(CO)(CO)c1ccccc1 [Ex 829]
EC50 (human purified sGC; [3]): 2.7 µM

Cc1nc2c(OCc3c(F)cccc3F)cccn2c1C(=O)NC(CO)(CO)c1ccccn1 [Ex 834]
blood flow increasing effect (Wistar male rats [1]; dose of 10 mg/kg): exhibited a blood flow increasing effect
EC50 (human purified sGC; [3]): 4.1 µM

Cc1nc2c(OCC3CCCCC3)cccn2c1C(=O)N[C@@H](CC(=O)O)CC(C)C [Example 12, (3R)-3-({[8-(cyclohexylmethoxy)-2-methylimidazo[1,2-a]pyridin-3-yl]carbonyl}amino)-5-methylhexanoic acid]
blood flow increasing effect (Wistar male rats [1]; dose of 10 mg/kg): exhibited a blood flow increasing effect
EC50 (human purified sGC; [3]): 3 µM

OCc1ccc(-c2nn(Cc3ccccc3)c3ccccc23)o1 [YC-1, [5-(1-benzyl-1H-indazol-3-yl)-2-furyl]methanol, reference compound]
Emax (human purified sGC; maximum activation of Example 102 taken as 100%, read-out: maximum activation relative to the maximum activation for compound of Example 102): 52%
